Data on twelve compounds can be found in patent US20060025458A1, “Alkylammonium compounds as antifungal and antitrypanosomal agents” (University of Connecticut, priority 2004, published 2006).

The subject of data set [1] is promastigote form of L. major. Briefly: Growth inhibition of Leishmania major promastigotes. As to conditions: read-out: IC50 of choline analogs in Leishmania major, WT. In kind it is cell-based. Here is the method: For those drugs, IC50 values were determined.
The next data set relates to S. cerevisiae. Description: Liquid growth inhibition assay of S. cerevisiae (OD600). To be noted: for Inhibition of S. cerevisiae growth (in words): structure-activity comparison, Examples 2-4. In kind it is cell-based, Saccharomyces cerevisiae. Here is the method: Strains and Growth Conditions: Wild-type (BY4741: Mata his3Δ1 leu2Δ0 met15Δ0 ura3Δ0) and mutant (hnm1Δ, psd1Δ, cki1Δ, pem1Δ, ept1Δ, cpt1Δ, eki1Δ, psd2Δ, pct1Δ, ect1Δ, pem2Δ) S. cerevisiae strains used in this study were purchased from Research Genetics (Invitrogen, USA). These strains were grown on YPD (1% yeast extract, 2% dextrose and 2% peptone) or synthetic complete medium (SD, 1.7% yeast nitrogen base, 5% ammonium sulfate and 2% dextrose). The Nigerian strain of P. falciparum was propagated in human red blood cells at 4% hematocrit by the method of Trager and Jensen (1976). Plate growth assays were performed by growing wild-type and mutant yeast strains in YPD to mid-log phase. Cultures were serially diluted 1:10 starting with a density of 3×10^7 cells/ml. The growth of cells was monitored by spotting 3 μl of each dilution onto solid medium in the absence or presence of 5 μM of G25.
Twenty-one analogs including first, second and third generation (E2a, E6, E9, E13, E24, F4, G2, G4, G5, G14, GI5, G25, H5, L1, L4, M34, M53, MS1, T3 and T4) compounds (provided by Dr. Henri Vial, City, Country) were tested (FIG. 4). The choice of the compounds was such that they represent all possible structural features introduced during the optimization process for enhancing antimalarial activity as determined using the combinatorial chemistry techniques.
The antimalarial drug G25 inhibits the growth of Saccharomyces cerevisiae. […] Growth inhibition was assessed by measuring the OD600 and comparing it to that of the wild-type strain grown under the same conditions in the absence of the compound. […] This IC50 value is in the range of the predicted intracellular concentration of G25 in P. falciparum due to the accumulative properties inside the infected erythrocytes.

Data set [2] deals with choline transport in the wild-type strain of S. cerevisiae. Briefly: [methyl-3H]-choline uptake in wild-type S. cerevisiae. In kind it is cell-based, Saccharomyces cerevisiae. To be noted: 20-fold excess over [methyl-3H]-choline. Here is the method:
(§1) Uptake Assays: Yeast strains were grown in synthetic complete medium supplemented as required to maintain cell growth to an optical density of 0.55-0.65 at 600 nm. Cells were harvested by centrifugation at 3,200×g for 10 min at 4° C., washed twice in cold PBS and resuspended in nitrogen-free medium (SD without ammonium sulfate). […] After 3 min incubation at 30° C. with shaking, transport was immediately stopped by filtration through Whatman GF/C glass microfiber paper. The filters were washed three times with 5 ml ice-cold PBS, air dried, and analyzed in a scintillation counter. For time course uptake, 3-4×10^7 cells were incubated at 30° C. in 1 ml of nitrogen-free medium in the presence of 25 nM [^3H]-T16 (69 Ci/mmol) for different time periods (1, 2, 3, 4, 5, 7, 10 and 15 min) after which 5 ml of cold PBS was added to stop the reaction. Kinetic parameters were determined after 4 min of incubation at 30° C. in the presence of [^3H]-T16 at concentrations ranging from 25 nM to 75 μM (69 Ci - 23 mCi/mol). The samples were centrifuged at 4° C. for 10 min at 1,200×g, the supernatants were discarded and the cells were then resuspended in 5 ml of cold PBS. The reaction was terminated by filtering the cell suspension through GF/C membranes that were pretreated with 15 ml of 0.05% polyethyleneimine (PEI). The filters were washed twice with 5 ml of cold PBS, air dried, and analyzed in a scintillation counter. The cellular accumulation ratio (CAR) was calculated as previously described for T16 and G25 (Biagini, et al., 2003; Wengelnik, et al., 2002).

In the next data set the test system is wild-type S. cerevisiae. Here is the method: as §1
In data set [3] the test system is hnm1Δ S. cerevisiae strain lacking the choline transporter gene HNM1. Briefly: [3H]-T16 transport in hnm1 deletion strain. In kind it is cell-based, Saccharomyces cerevisiae. As to conditions: 4 min, 30° C. Here is the method:
as §1, with “The samples were centrifuged at 4° C. for 10 min at 1,200×g, the supernatants were discarded and the cells were then resuspended in 5 ml of cold PBS. The reaction was terminated by filtering the cell suspension through GF/C membranes that were pretreated with 15 ml of 0.05% polyethyleneimine (PEI).” left out

Data set [4] relates to P. falciparum. Briefly: P. falciparum growth in vitro (antimalarial activity). To be noted: predicted by QSAR and confirmed experimentally; read-out: IC50, in vitro anti-malarial activity. In kind it is cell-based, Plasmodium falciparum.
The subject of data set [5] is P. falciparum-infected erythrocytes. To be noted: after 3 h incubation; cited from earlier work.
In data set [6] the test system is P. falciparum. To be noted: Ancelin and Vial, 1986; read-out: IC50, lethal to P. falciparum in vitro; cited from earlier work.
The conditions of data set [7]: cited from earlier work.
The test system of the next data set is C. albicans strain BWP17. Briefly: Growth inhibition of C. albicans in vitro. In kind it is cell-based, Candida albicans. To be noted: read-out: IC50, C. albicans proliferation. Here is the method:
G15, E24 and C35 inhibited at higher concentrations (>10 μM).

Like-named read-outs stand apart in the source and are kept apart here.

In general, Km refers to the substrate concentration at which the rate is half of its maximum.

Regarding `CCCCCCCCCCCC[N+]1(C)CCCC1.[Br-]` [E24], in [1], the IC50 amounted to 700 nM.

Consider `N=C(N)CCCCCCCCCCCCC(=N)N` [M34], for which the IC50 in data set [1] came out at 3570 nM.

Turning to `CCCCCCCCCCCC[N+](C)(C)CCO` [F4], the IC50 in [1] worked out at 4100 nM.

With `CCc1sc[n+](CCCCCCCCCCCC[n+]2csc(CC)c2C)c1C.[I-].[I-]` [T16, 1, 12-dodecanemethylene bis[4-methyl-5-ethylthiazolium]diiodide], the IC50 in the data set with S. cerevisiae (wild-type strain BY4741, 1×10^4 cells/ml, liquid medium, 30° C., 16 h, read-out: IC50, inhibition of yeast growth) is around 4000 nM; in the data set with P. falciparum [4], around 16 nM. Also, the “inhibition of choline transport” value in [2] came out at 26%. Besides, the “cellular accumulation ratio (CAR) in yeast” value in the data set on wild-type S. cerevisiae is on record as “less than 7”. In addition, the Km turned out to be 5.05 ± 0.26 µM with wild-type S. cerevisiae (read-out: apparent Km of transport, wild-type, 4 min, 30° C., Lineweaver-Burk) and 7.45 ± 1.98 µM in data set [3]. Further, in the data set with wild-type S. cerevisiae (wild-type, 30° C., 25 nM), the “time during which uptake was linear” value stood at 12 min. Besides, the “maximum velocity Vmax of transport” value in the data set with wild-type S. cerevisiae (wild-type, 4 min, 30° C.) is on record as 0.98±0.48 pmol/min×10^7 cells. Further, in data set [3], the Vmax of transport is reported as 0.76±0.21 pmol/min/10^7 cells. In [5], the “cellular accumulation ratio (CAR)” value was around 500.

Turning to `CCCCCCCCCCCC[N+](CCC)(CCC)CCC.[Br-]` [E13], the “Inhibition of S. cerevisiae growth (in words)” value (from here on “Inhibition … (in words)”) with S. cerevisiae is “no improvement”. For the same compound, the IC50 in data set [1] is 350 nM.

Consider `C[N+]1(C)CCOC(O)(c2ccc(-c3ccc(C4(O)C[N+](C)(C)CCO4)cc3)cc2)C1` (centres unmarked) [HC3, hemicholinium 3], for which, in the data set on P. falciparum [6], the IC50 was 4000 nM.

In the case of `CCCCCCCCCCCC[N+](C)(C)C.[Br-]` [E6], in the data set with S. cerevisiae, the “Inhibition … (in words)” value is “not an effective drug”. Besides, in the data set on S. cerevisiae (wild-type W303 and BY4741, 10^5 cells/ml, YPD, 30° C., 24 h), the “IC50, growth of S. cerevisiae” value is recorded as “high μM range”. The IC50 in [1] turned out to be 2150 nM.

In the case of `CCCCCCCCCC[N+](C)(C)C` [DTMA, decyltrimethylammonium], in the data set on P. falciparum [6], the IC50 is 700 nM.

For the compound Amphotericin B, the half-life result in [7] (IV infusion) is given as “about 2 weeks”. Also, in [7] (patients), the “renal impairment, share of patients” value is listed as 80%.

`C[N+](C)(CCO)CCCCCCCCCCCCCCCC[N+](C)(C)CCO.[Br-].[Br-]` [H5]: the “Inhibition … (in words)” value with S. cerevisiae was “better efficacy”. Also, the IC50 in the data set on C. albicans strain BWP17 was around 5000 nM.

For the compound `C[N+](C)(C)CCCCCCCCCC[N+](C)(C)C` [DMA, decamethonium], the IC50 in the data set with P. falciparum [6] is 1000 nM.

`CCCCCCCCCCCCCCCCCC[N+](C)(C)C.[Cl-]` [E9]: the “Inhibition … (in words)” value with S. cerevisiae is “inhibited”. The IC50 with S. cerevisiae (wild-type W303 and BY4741, 10^5 cells/ml, YPD, 30° C., 24 h, read-out: IC50, growth of S. cerevisiae) was 250 to 500 nM; with C. albicans strain BWP17, around 1000 nM; in data set [1], 110 nM.
